Legend:
[1] = tested on: Human immunodeficiency virus 1; assay: Antiviral activity against wild type HIV1 ERS104P infected in human PHA-PBMs assessed as inhibition of p24 Gag protein production; settings: Human immunodeficiency virus 1, ERS104P
[2] = tested on: Human immunodeficiency virus 1; assay: Antiviral activity against multidrug resistant HIV1 MDR/B containing protease mutant infected in human PHA-PBMs assessed as inhibition of p24 Gag protein production; settings: Human immunodeficiency virus 1, MDR/B
[3] = tested on: Human immunodeficiency virus 1; assay: Antiviral activity against multidrug resistant HIV1 MDR/C containing protease mutant infected in human PHA-PBMs assessed as inhibition of p24 Gag protein production; settings: Human immunodeficiency virus 1, MDR/C
[4] = tested on: Human immunodeficiency virus 1; assay: Antiviral activity against multidrug resistant HIV1 MDR/G containing protease mutant infected in human PHA-PBMs assessed as inhibition of p24 Gag protein production; settings: Human immunodeficiency virus 1, MDR/G
[5] = tested on: Human immunodeficiency virus 1; assay: Antiviral activity against multidrug resistant HIV1 MDR/B containing protease mutant infected in human PHA-PBMs assessed as inhibition of p24 Gag protein production relative to wild type
[6] = tested on: Human immunodeficiency virus 1; assay: Antiviral activity against multidrug resistant HIV1 MDR/C containing protease mutant infected in human PHA-PBMs assessed as inhibition of p24 Gag protein production relative to wild type
[7] = tested on: Human immunodeficiency virus 1; assay: Antiviral activity against multidrug resistant HIV1 MDR/G containing protease mutant infected in human PHA-PBMs assessed as inhibition of p24 Gag protein production relative to wild type
[8] = target: Protease (Human immunodeficiency virus 1, UniProt Q9YQ12); assay: Inhibition of wild type HIV1 protease
Sequence of Protease (Q9YQ12 whole entry): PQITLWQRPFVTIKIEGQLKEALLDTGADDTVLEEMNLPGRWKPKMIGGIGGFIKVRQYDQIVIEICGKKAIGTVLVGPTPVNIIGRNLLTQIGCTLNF

[9] = tested on: Human immunodeficiency virus 1; assay: Antiviral activity against HIV1 LAI infected in human MT-2 cells assessed as virus-induced cytopathic effect by MTT assay; settings: Human immunodeficiency virus 1, LAI

Compound	Ki [8] [nM]	IC50 [9] [nM]	also measured
CC(C)CN(C[C@@H](O)[C@H](Cc1ccccc1)NC(=O)O[C@H]1CCOC1)S(=O)(=O)c1ccc(N)cc1	–	–	EC50 [1]: 37 nM; EC50 [2]: 44 nM; EC50 [3]: 380 nM; EC50 [4]: 398 nM; fold change (FC) [5]: 12; fold change (FC) [6]: 10; fold change (FC) [7]: 11
COc1ccc(S(=O)(=O)N(CC(C)C)C[C@@H](O)[C@H](Cc2cccc(-c3c(OC)cccc3OC)c2)NC(=O)O[C@H]2CO[C@H]3OCC[C@H]32)cc1	0.025	24	–
COc1ccc(S(=O)(=O)N(CC(C)C)C[C@@H](O)[C@H](Cc2cccc(-c3cccc(OC)c3)c2)NC(=O)O[C@H]2CO[C@H]3OCC[C@H]32)cc1	0.014	5	–
COc1ccc(S(=O)(=O)N(CC(C)C)C[C@@H](O)[C@H](Cc2cccc(-c3cc(C)cc(C)c3)c2)NC(=O)O[C@H]2CO[C@H]3OCC[C@H]32)cc1	0.45	56	–
COc1ccc(S(=O)(=O)N(CC(C)C)C[C@@H](O)[C@H](Cc2cccc(-c3cc(OC)cc(OC)c3)c2)NC(=O)O[C@H]2CO[C@H]3OCC[C@H]32)cc1	0.014	5	–
COc1ccc(S(=O)(=O)N(CC(C)C)C[C@@H](O)[C@H](Cc2cccc(-c3cc(C)cc(C)c3)c2)NC(=O)O[C@H]2CCOC2)cc1	0.63	> 1000	–
COc1ccc(S(=O)(=O)N(CC(C)C)C[C@@H](O)[C@H](Cc2cccc(-c3cccc(OC)c3)c2)NC(=O)O[C@H]2CCOC2)cc1	1.53	> 381	–
COc1ccc(S(=O)(=O)N(CC(C)C)C[C@@H](O)[C@H](Cc2cccc(-c3cc(OC)cc(OC)c3)c2)NC(=O)O[C@H]2CCOC2)cc1	0.58	180	–
COc1ccc(S(=O)(=O)N(CC(C)C)C[C@@H](O)[C@H](Cc2cccc(-c3cc(C)cc(C)c3)c2)NC(=O)OC(C)(C)C)cc1	48.8	> 1000	–
COc1ccc(S(=O)(=O)N(CC(C)C)C[C@@H](O)[C@H](Cc2cccc(-c3cc(OC(F)(F)F)cc(OC(F)(F)F)c3)c2)NC(=O)OC(C)(C)C)cc1	92.8	> 1000	–
COc1ccc(S(=O)(=O)N(CC(C)C)C[C@@H](O)[C@H](Cc2cccc(-c3ccc4c(c3)OCO4)c2)NC(=O)OC(C)(C)C)cc1	18	> 1000	–
COc1ccc(S(=O)(=O)N(CC(C)C)C[C@@H](O)[C@H](Cc2cccc(-c3cc(OC)cc(OC)c3)c2)NC(=O)OC(C)(C)C)cc1	0.82	> 1000	–
COc1ccc(S(=O)(=O)N(CC(C)C)C[C@@H](O)[C@H](Cc2cccc(-c3ccccc3OC)c2)NC(=O)O[C@H]2CO[C@H]3OCC[C@H]32)cc1	0.012	3	EC50 [1]: 4.8 nM; EC50 [2]: 36 nM; EC50 [3]: 2.9 nM; EC50 [4]: 4.7 nM; fold change (FC) [5]: 8; fold change (FC) [6]: 1; fold change (FC) [7]: 1

From ChEMBL document CHEMBL3580616, “Structure-based design of potent HIV-1 protease inhibitors with modified P1-biphenyl ligands: synthesis, biological evaluation, and enzyme-inhibitor X-ray structural studies” (J Med Chem, 2015)
